Like-named read-outs stand apart in the source and are kept apart here.

Common to all, as to test: Ca2+ mobilization, GFP-apoaequorin luminescence in CHO-K1 with Gα-16
Format in all cases: cell-based

Assay [1] has as its target T1, P. dumerilii α2-adrenergic receptor (Platynereis dumerilii, UniProt A0A1J0F5X6).
T1 construct: full-length in pcDNA3.1(+), expressed in CHO-K1 with Gα-16 and GFP-apoaequorin
T1 sequence (A0A1J0F5X6 1-619): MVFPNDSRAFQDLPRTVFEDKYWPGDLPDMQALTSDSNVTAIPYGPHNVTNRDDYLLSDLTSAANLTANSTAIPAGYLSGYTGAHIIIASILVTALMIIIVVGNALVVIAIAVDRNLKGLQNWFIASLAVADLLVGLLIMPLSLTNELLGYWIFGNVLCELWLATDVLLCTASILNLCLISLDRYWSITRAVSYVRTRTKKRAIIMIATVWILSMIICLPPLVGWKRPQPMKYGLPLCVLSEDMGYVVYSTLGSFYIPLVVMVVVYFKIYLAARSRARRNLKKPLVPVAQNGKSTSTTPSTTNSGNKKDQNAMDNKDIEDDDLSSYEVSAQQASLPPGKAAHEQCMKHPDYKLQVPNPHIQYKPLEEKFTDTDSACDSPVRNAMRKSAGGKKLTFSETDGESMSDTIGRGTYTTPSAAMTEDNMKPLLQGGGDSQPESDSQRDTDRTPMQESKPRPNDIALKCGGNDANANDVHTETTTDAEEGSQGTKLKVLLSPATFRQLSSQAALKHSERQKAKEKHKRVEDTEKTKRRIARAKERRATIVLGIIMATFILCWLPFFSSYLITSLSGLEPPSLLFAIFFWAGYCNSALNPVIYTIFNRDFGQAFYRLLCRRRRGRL
The text has this: Ca2+ mobilization, GFP-apoaequorin luminescence in CHO-K1 with Gα-16 on P. dumerilii α2-adrenergic receptor

Assay [2] concerns the target T2, S. kowalevskii α2-adrenergic (Saccoglossus kowalevskii, UniProt A0ABM0GQ86).
T2 construct: gene LOC100373264; full-length in pcDNA3.1(+), expressed in CHO-K1 with Gα-16 and GFP-apoaequorin
T2 sequence (A0ABM0GQ86 1-464): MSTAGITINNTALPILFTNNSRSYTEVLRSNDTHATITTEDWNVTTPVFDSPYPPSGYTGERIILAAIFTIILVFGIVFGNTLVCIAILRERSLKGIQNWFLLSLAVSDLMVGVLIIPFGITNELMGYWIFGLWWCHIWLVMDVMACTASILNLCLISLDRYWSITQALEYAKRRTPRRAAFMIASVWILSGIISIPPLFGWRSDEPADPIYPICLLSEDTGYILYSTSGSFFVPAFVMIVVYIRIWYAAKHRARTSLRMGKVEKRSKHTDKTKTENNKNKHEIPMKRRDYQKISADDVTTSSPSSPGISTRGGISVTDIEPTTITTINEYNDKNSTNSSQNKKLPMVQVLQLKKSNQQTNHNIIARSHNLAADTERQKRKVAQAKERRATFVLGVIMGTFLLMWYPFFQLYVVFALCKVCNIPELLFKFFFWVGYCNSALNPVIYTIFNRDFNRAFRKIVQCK
Particulars: read-out: Epinephrine. An excerpt:
Ca2+ mobilization, GFP-apoaequorin luminescence in CHO-K1 with Gα-16 on S. kowalevskii α2-adrenergic

Assay [3] deals with T3, P. caudatus α2-adrenergic (Priapulus caudatus, UniProt A0ABM1F9E8).
T3 construct: gene LOC106820961; full-length in pcDNA3.1(+), expressed in CHO-K1 with Gα-16 and GFP-apoaequorin
T3 sequence (A0ABM1F9E8 1-470): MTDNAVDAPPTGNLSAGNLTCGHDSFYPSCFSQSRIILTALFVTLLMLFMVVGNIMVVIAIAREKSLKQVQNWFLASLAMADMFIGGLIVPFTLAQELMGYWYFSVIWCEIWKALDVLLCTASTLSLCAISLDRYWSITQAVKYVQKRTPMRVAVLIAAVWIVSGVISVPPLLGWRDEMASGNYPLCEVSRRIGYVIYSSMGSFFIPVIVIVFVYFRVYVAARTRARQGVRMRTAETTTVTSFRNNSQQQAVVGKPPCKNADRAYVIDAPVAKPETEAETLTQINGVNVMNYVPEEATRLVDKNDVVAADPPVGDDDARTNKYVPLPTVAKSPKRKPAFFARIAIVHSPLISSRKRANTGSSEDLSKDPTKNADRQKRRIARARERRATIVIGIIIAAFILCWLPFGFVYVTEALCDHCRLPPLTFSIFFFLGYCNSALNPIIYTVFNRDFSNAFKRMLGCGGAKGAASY
An excerpt:
Ca2+ mobilization, GFP-apoaequorin luminescence in CHO-K1 with Gα-16 on P. caudatus α2-adrenergic

The target in assay [4] is T4, Platynereis dumerilii α1-adrenergic receptor (Platynereis dumerilii, UniProt A0A1J0F5Z2).
T4 construct: full-length in pcDNA3.1(+), expressed in CHO-K1 with Gα-16 and GFP-apoaequorin
T4 sequence (A0A1J0F5Z2 1-651): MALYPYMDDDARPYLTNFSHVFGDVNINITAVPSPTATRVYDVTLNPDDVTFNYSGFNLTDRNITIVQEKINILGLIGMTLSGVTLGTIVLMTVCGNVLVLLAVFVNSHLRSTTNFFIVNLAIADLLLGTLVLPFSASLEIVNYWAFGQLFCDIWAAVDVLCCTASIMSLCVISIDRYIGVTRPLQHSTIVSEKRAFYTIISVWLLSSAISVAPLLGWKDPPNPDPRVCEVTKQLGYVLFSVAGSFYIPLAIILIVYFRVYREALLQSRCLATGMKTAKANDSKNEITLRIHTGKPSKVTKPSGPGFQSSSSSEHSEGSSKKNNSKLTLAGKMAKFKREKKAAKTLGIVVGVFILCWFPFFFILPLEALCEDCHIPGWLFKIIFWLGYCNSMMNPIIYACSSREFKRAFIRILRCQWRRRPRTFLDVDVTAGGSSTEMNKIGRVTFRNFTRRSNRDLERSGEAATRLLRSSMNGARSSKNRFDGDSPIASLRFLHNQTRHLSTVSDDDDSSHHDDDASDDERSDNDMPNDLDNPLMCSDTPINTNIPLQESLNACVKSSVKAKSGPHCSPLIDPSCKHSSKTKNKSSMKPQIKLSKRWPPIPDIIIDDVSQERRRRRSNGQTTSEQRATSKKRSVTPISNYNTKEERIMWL
The conditions noted are these: read-out: Norepinephrine. The text has this: Ca2+ mobilization, GFP-apoaequorin luminescence in CHO-K1 with Gα-16 on Platynereis dumerilii α1-adrenergic receptor

Assay [5] concerns the target T5, Priapulus caudatus α1-adrenergic (Priapulus caudatus, UniProt A0ABM1DSS1).
T5 construct: gene LOC106805782; full-length in pcDNA3.1(+), expressed in CHO-K1 with Gα-16 and GFP-apoaequorin
T5 sequence (A0ABM1DSS1 1-550): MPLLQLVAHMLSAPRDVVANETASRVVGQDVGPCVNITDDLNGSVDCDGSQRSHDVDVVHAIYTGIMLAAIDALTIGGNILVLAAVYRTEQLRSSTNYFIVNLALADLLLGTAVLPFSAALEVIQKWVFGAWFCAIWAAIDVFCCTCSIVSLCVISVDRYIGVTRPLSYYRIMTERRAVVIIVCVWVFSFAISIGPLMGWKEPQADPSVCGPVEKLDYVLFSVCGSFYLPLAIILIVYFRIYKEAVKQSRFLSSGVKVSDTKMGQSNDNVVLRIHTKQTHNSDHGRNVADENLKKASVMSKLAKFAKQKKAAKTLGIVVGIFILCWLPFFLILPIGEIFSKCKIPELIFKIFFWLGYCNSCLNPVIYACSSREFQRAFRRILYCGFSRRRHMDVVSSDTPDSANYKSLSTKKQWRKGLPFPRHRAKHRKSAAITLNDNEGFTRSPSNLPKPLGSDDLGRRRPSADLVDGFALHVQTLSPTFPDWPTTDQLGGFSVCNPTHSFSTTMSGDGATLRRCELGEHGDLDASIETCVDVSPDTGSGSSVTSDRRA
Particulars: read-out: Norepinephrine. The text has this:
Ca2+ mobilization, GFP-apoaequorin luminescence in CHO-K1 with Gα-16 on Priapulus caudatus α1-adrenergic

For assay [6], the target named is T6, S. kowalevskii α1-adrenergic (Saccoglossus kowalevskii, UniProt A0A0U2M149).
T6 construct: full-length in pcDNA3.1(+), expressed in CHO-K1 with Gα-16 and GFP-apoaequorin
T6 sequence (A0A0U2M149 1-774): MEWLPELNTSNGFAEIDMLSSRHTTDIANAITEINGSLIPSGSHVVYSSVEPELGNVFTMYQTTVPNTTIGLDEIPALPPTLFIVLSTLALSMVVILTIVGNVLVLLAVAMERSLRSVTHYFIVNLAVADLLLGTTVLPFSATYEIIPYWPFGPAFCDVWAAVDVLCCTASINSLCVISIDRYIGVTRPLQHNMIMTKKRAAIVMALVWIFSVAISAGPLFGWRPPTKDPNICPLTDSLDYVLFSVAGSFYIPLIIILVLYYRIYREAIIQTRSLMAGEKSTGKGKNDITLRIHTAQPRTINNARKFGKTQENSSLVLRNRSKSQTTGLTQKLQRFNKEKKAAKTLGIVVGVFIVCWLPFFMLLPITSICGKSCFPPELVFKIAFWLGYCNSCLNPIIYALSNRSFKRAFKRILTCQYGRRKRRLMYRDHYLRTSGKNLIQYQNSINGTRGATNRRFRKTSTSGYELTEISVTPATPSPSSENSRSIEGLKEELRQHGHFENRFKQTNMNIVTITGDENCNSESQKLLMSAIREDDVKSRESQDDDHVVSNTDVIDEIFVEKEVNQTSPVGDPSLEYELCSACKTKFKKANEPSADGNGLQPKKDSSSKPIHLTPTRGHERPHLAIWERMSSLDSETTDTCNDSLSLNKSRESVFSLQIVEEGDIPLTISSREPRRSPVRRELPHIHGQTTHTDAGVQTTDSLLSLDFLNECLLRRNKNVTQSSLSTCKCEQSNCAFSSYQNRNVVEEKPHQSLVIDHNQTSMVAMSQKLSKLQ
Particulars: read-out: Norepinephrine. An excerpt: Ca2+ mobilization, GFP-apoaequorin luminescence in CHO-K1 with Gα-16 on S. kowalevskii α1-adrenergic

Consider `CNC[C@H](O)c1ccc(O)c(O)c1` [epinephrine], for which the EC50 in assay [1] (read-out: Epinephrine) worked out at 11 nM; in assay [2] it was 2.3 nM; in assay [3] (read-out: Epinephrine) it was 450 nM.

`NC[C@H](O)c1ccc(O)c(O)c1` [norepinephrine]: the EC50 is 210 nM in assay [4]; 7.5 nM in assay [5]; 8.2 nM in assay [1] (read-out: Norepinephrine); 17 nM in assay [6]; 470 nM in assay [3] (read-out: Norepinephrine).

The record behind these values is paper PMC5282848, “Ancient coexistence of norepinephrine, tyramine, and octopamine signaling in bilaterians” (BMC Biology, 2017).
